Here are results for 14 compounds from patent publication EP0100527A1, “4H-1,4-benzothiazines for use as medicaments” (BAYER AG, priority 1982, dated 1984).

This assay addresses T1, Lipoxygenase in Kaninchen-PMN-Leukozyten (Oryctolagus cuniculus, UniProt G1SNX0).
T1 construct: Die polymorphkernigen Leukozyten des Menschen und des Kaninchens metabolisieren die Arachidonsäure; endogenous in cells; host or cells: rabbit polymorphonuclear (PMN) leukocytes
T1 sequence (G1SNX0 1-674): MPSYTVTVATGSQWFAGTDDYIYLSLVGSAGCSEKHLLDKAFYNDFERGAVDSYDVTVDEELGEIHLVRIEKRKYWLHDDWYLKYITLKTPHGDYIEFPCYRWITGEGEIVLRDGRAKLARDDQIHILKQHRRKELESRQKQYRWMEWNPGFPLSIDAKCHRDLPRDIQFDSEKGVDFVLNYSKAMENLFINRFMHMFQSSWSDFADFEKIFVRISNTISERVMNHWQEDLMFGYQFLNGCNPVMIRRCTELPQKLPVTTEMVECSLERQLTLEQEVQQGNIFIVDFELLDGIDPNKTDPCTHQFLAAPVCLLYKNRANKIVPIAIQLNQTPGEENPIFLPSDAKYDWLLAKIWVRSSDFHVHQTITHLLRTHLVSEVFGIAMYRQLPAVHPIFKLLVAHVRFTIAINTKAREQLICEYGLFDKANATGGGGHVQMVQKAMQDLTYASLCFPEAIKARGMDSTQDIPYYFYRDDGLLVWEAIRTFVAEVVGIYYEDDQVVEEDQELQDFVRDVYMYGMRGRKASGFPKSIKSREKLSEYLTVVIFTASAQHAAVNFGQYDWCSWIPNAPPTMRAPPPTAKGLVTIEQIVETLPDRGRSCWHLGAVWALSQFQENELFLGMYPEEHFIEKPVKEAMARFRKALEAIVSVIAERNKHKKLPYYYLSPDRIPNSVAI
Put plainly: Inhibition of lipoxygenase (release of 5-HETE and leukotriene B4) in rabbit PMN leukocytes. The class given is cell-based. The text has this: Analog den vorstehenden Ausführungen lassen sich die lipoxygenasehemmenden Eigenschaften der erfindungsgemäßen Verbindungen auch an Leukozyten nachweisen.
Die polymorphkernigen Leukozyten des Menschen und des Kaninchens metabolisieren die Arachidonsäure zu 5-Hydroxy-5,8,11,14-eikosatetraensäure (5-HETE) und Leukotrien B4 (5S, 12R-Dihydroxy-6 cis, 8,10-trans-14 ciseikosatetraensäure). Die Hemmung der Freisetzung von 5-HETE und Leukotrien B4 aus den Leukozyten stellt ein Maß für den lipoxygenasehemmenden Effekt der erfindungsgemäßen Verbindungen dar. (Vergl. Tab. 1) Der Test mit den Humanleukozyten wurde nach Borgeat und Samuelsson (j. Biol. Chem. 254; 2643, 1979 und Proc. Natl. Acad. Sci. USA, 76, 2148 1979), mit Kaninchenleukozyten nach Walker und .Parish (Inter. Archs. Allergy appl. Immun. 66, 83, 1981) durchgeführt.
For `CC1=C(C(=O)OCc2ccccc2)Sc2ccccc2N1` [Beispiel 13], the “Minimale Konzentration für die Hemmung der Lipoxygenase in Kaninchen-PMN-Leukozyten” value is 5x10^-7 - 10^-6 g/ml.
As for `CC1=C(C(=O)OCCC#N)Sc2ccccc2N1` [Beispiel 1, 3-Methyl-4H-1,4-benzothiazin-2-carbonsäure-(2-cyanethyl)-ester], the “Minimale Konzentration für die Hemmung der Lipoxygenase in Kaninchen-PMN-Leukozyten” value is recorded as 5x10^-7 - 10^-6 g/ml.
As for `CCCCOC(=O)C1=C(C)Nc2ccccc2S1` [Beispiel 9], the “Minimale Konzentration für die Hemmung der Lipoxygenase in Kaninchen-PMN-Leukozyten” value is 10^-6 g/ml.
`COc1ccc2c(c1)SC(C(=O)OCCC#N)=C(C)N2` [Beispiel 28]: the “Minimale Konzentration für die Hemmung der Lipoxygenase in Kaninchen-PMN-Leukozyten” value was 10^-6 g/ml.
`COC(=O)C1=C(C)Nc2ccccc2S1` [Beispiel 2]: the “Minimale Konzentration für die Hemmung der Lipoxygenase in Kaninchen-PMN-Leukozyten” value is listed as 5x10^-7 - 10^-6 g/ml.
Under `CCN1C=C(C(=O)OC)Sc2cc([N+](=O)[O-])ccc21` [Beispiel 40] stands 5e-06 g/mL.
Take `CSCCOC(=O)C1=C(C)Nc2ccccc2S1` [Beispiel 8]: the “Minimale Konzentration für die Hemmung der Lipoxygenase in Kaninchen-PMN-Leukozyten” value is on record as 5x10^-7 - 10^-6 g/ml.
Consider `CSCCOC(=O)C1=C(C)Nc2ccc(C)cc2S1` [Beispiel 29], for which the “Minimale Konzentration für die Hemmung der Lipoxygenase in Kaninchen-PMN-Leukozyten” value is recorded as 10^-6 g/ml.
Take `CCOC(=O)C1=CNc2ccc(OC)cc2S1` [Beispiel 32]: the “Minimale Konzentration für die Hemmung der Lipoxygenase in Kaninchen-PMN-Leukozyten” value is recorded as 10^-6 g/ml.
For `CC1=C(C(=O)OCCc2ccccc2)Sc2ccccc2N1` [Beispiel 12], the “Minimale Konzentration für die Hemmung der Lipoxygenase in Kaninchen-PMN-Leukozyten” value is 10^-6 g/ml.
`CC(=O)C1=C(C)Nc2ccccc2S1` [Beispiel 11]: the “Minimale Konzentration für die Hemmung der Lipoxygenase in Kaninchen-PMN-Leukozyten” value was 10^-6 g/ml.
Turning to `CC1=C(C(=O)OC2CCCCC2)Sc2ccccc2N1` [Beispiel 5], the “Minimale Konzentration für die Hemmung der Lipoxygenase in Kaninchen-PMN-Leukozyten” value is given as 5x10^-7 - 10^-6 g/ml.
On to `CCN1C=C(C(=O)O)Sc2cc([N+](=O)[O-])ccc21` [Beispiel 37], for which the “Minimale Konzentration für die Hemmung der Lipoxygenase in Kaninchen-PMN-Leukozyten” value is 5e-06 g/mL.
Turning to `CCOC(=O)C1=C(CC)Nc2ccccc2S1` [Beispiel 4], the “Minimale Konzentration für die Hemmung der Lipoxygenase in Kaninchen-PMN-Leukozyten” value is given as 5x10^-7 - 10^-6 g/ml.
